Data from patent US20140024638A1, “TREATMENT OF COGNITIVE DYSFUNCTION IN SCHIZOPHRENIA” (TARGACEPT, INC., priority 2011, published 2014).
Entries after “also recorded” stand apart in the source; their conditions may differ.

How the values were obtained:
[1] = tested on: patients with schizophrenia; assay: CogState Schizophrenia Battery Composite score, Phase 2 trial; assay type: in vivo, human; conditions: for CogState Composite score: Mean (SE): tobacco users meeting data integrity criteria; for CogState Composite score: Mean (SEM): total population, subjects meeting data integrity criteria
Method: As provided in the above-referenced brochure, CogState is a provider of cognitive testing products and services that predominantly caters to the global pharmaceutical industry. The Schizophrenia Cognitive Test Battery covers all domains identified by MATRICS initiative; requires around 35 minutes for administration; is sensitive to the effects of novel compounds and licensed medication; is sensitive to the effects of medication in groups or individual patients; and the outcome measures are related to functional status.
(§1) The double blind, placebo controlled Phase 2 trial was conducted at 7 sites in the United States and 12 sites in India. […] Of the randomized patients, approximately 69% were male and approximately 46% were users of tobacco products. […] The primary efficacy outcome measure was GMLT, and the trial included a number of other scales as secondary efficacy outcome measures.

[2] = tested on: patients with schizophrenia; assay: CogState Detection task (psychomotor speed), Phase 2 trial; assay type: in vivo, human; conditions: for CogState Detection: Mean (SE): tobacco users meeting data integrity criteria; for CogState Detection: Mean (SEM): total population, subjects meeting data integrity criteria
Method: as §1

[3] = tested on: patients with schizophrenia; assay: CogState Identification task (attention), Phase 2 trial; assay type: in vivo, human; conditions: for CogState Identification: Mean (SE): tobacco users meeting data integrity criteria; for CogState Identification: Mean (SEM): total population, subjects meeting data integrity criteria
Method: as §1

[4] = tested on: patients with schizophrenia; assay: CogState 1-Card Learning task (visual learning), Phase 2 trial; assay type: in vivo, human; conditions: for CogState 1-Card Learning: Mean (SE): tobacco users meeting data integrity criteria; for CogState 1-Card Learning: Mean (SEM): total population, subjects meeting data integrity criteria
Method: as §1

[5] = tested on: patients with schizophrenia; assay: CogState 1-Back task (working memory), Phase 2 trial; assay type: in vivo, human; conditions: for CogState 1-Back: Mean (SE): tobacco users meeting data integrity criteria; for CogState 1-Back: Mean (SEM): total population, subjects meeting data integrity criteria
Method: as §1

[6] = tested on: patients with schizophrenia; assay: CogState Social-Emotional Cognition task, Phase 2 trial; assay type: in vivo, human; conditions: for CogState Social-Emotional Cognition: Mean (SE): tobacco users meeting data integrity criteria; for CogState Social-Emotional Cognition: Mean (SEM): total population, subjects meeting data integrity criteria
Method: as §1

[7] = tested on: patients with schizophrenia; assay: CogState International Shopping List (verbal learning), Phase 2 trial; parameters: species or system human; conditions: in vivo
Method: as §1

[8] = tested on: patients with schizophrenia; assay: Phase 2 clinical proof of concept trial, overall efficacy; assay type: in vivo, human; conditions: Phase 2 trial
Method: as §1
The GMLT is a computerized test designed to assess executive function (the ability to organize cognitive processes, including the ability to plan, prioritize, stop and start activities, shift from one activity to another activity and to monitor one's own behavior). Impaired executive function is thought to be an important aspect of cognitive dysfunction in schizophrenia.

[9] = tested on: patients with schizophrenia; assay: Phase 2 trial, safety and tolerability; assay type: in vivo, human
Method: as §1

[10] = in vivo; cited from earlier work
[11] = in vivo; cited from earlier work; remark: listed apart in the source

In the case of `O=C(N[C@@H]1C2CCN(CC2)[C@H]1Cc1cccnc1)c1cc2ccccc2o1` (single isomer, unassigned) [TC-5619], the “CogState composite score, result in words” value ([1]; in vivo) is reported as “statistically significant results of improvement”, the “CogState Composite score: Mean (SE)” value ([1]; Week 4, 1 mg daily, 1-tailed p = 0.471) is reported as 0.007 0.099); p = 0.471 and the “CogState Composite score: Mean (SE)” value ([1]; Week 8, 5 mg daily, 1-tailed p = 0.614) is reported as −0.029 (0.101); p = 0.614. For the same compound, the “CogState Composite score: Mean (SE)” value ([1]; Week 12, 25 mg daily, 1-tailed p = 0.098) was 0.129 0.100); p = 0.098 ^, the “CogState Composite score: Mean (SEM)” value ([1]; Week 4, 1 mg daily, 1-tailed p = 0.838) was −0.066 (0.066); p = 0.838 and the “CogState Composite score: Mean (SEM)” value ([1]; Week 8, 5 mg daily, 1-tailed p = 0.821) was −0.062 .068); p = 0.821^. The “CogState Composite score: Mean (SEM)” value ([1]; Week 12, 25 mg daily, 1-tailed p = 0.326) was 0.030 0.067); p = 0.326 ^, the “CogState detection (psychomotor speed), result in words” value ([2]; in vivo) was “statistically significant results of improvement” and the “CogState Detection: Mean (SE)” value ([2]; Week 4, 1 mg daily, 1-tailed p = 0.254) was −0.014 (0.021); p = 0.254. For the same compound, the “CogState Detection: Mean (SE)” value ([2]; Week 8, 5 mg daily, 1-tailed p = 0.491) was −0.000 (0.021); p = 0.491, the “CogState Detection: Mean (SE)” value ([2]; Week 12, 25 mg daily, 1-tailed p = 0.265) was −0.013 0.021); p = 0.265 ^ and the “CogState Detection: Mean (SEM)” value ([2]; Week 4, 1 mg daily, 1-tailed p = 0.693) was 0.007 (0.015); p = 0.693. For the same compound, the “CogState Detection: Mean (SEM)” value ([2]; Week 8, 5 mg daily, 1-tailed p = 0.650) was 0.006 (0.014) p = 0.650^, the “CogState Detection: Mean (SEM)” value ([2]; Week 12, 25 mg daily, 1-tailed p = 0.567) was 0.002 (0.015) p = 0.567^ and the “CogState identification (attention), result in words” value ([3]; in vivo) was “statistically significant results of improvement”. For the same compound, the “CogState Identification: Mean (SE)” value ([3]; Week 4, 1 mg daily, 1-tailed p = 0.097) was −0.021 (0.016); p = 0.097, the “CogState Identification: Mean (SE)” value ([3]; Week 8, 5 mg daily, 1-tailed p = 0.261) was −0.011 (0.017); p = 0.261 and the “CogState Identification: Mean (SE)” value ([3]; Week 12, 25 mg daily, 1-tailed p = 0.057) was −0.026 (0.016); p = 0.057. The “CogState Identification: Mean (SEM)” value ([3]; Week 4, 1 mg daily, 1-tailed p = 0.311) was −0.005 (0.011); p = 0.311, the “CogState Identification: Mean (SEM)” value ([3]; Week 8, 5 mg daily, 1-tailed p = 0.111) was −0.014 (0.012); p = 0.111 and the “CogState Identification: Mean (SEM)” value ([3]; Week 12, 25 mg daily, 1-tailed p = 0.063) was −0.017 (0.011); p = 0.063. The “CogState 1-card learning (visual learning), result in words” value ([4]; in vivo) was “statistically significant results of improvement”, the “CogState 1-Card Learning: Mean (SE)” value ([4]; Week 4, 1 mg daily, 1-tailed p = 0.615) was −0.008 (0.027); p = 0.615 and the “CogState 1-Card Learning: Mean (SE)” value ([4]; Week 8, 5 mg daily, 1-tailed p = 0.778) was −0.021; 0.028); p = 0.778. For the same compound, the “CogState 1-Card Learning: Mean (SE)” value ([4]; Week 12, 25 mg daily, 1-tailed p = 0.338) was 0.012 (0.028); p = 0.338, the “CogState 1-Card Learning: Mean (SEM)” value ([4]; Week 4, 1 mg daily, 1-tailed P = 0.660) was −0.008 (0.019); P = 0.660 ^ and the “CogState 1-Card Learning: Mean (SEM)” value ([4]; Week 8, 5 mg daily, 1-tailed P = 0.899) was −0.024 (0.019); P = 0.899 ^. The “CogState 1-Card Learning: Mean (SEM)” value ([4]; Week 12, 25 mg daily, 1-tailed P = 0.841) was −0.019 (0.020); P = 0.841 ^, the “CogState 1-back (working memory), result in words” value ([5]; in vivo) was “statistically significant results of improvement” and the “CogState 1-Back: Mean (SE)” value ([5]; Week 4, 1 mg daily, 1-tailed p = 0.605) was 0.005 (0.021); p = 0.605. The “CogState 1-Back: Mean (SE)” value ([5]; Week 8, 5 mg daily, 1-tailed p = 0.329) was −0.009 (0.021); p = 0.329, the “CogState 1-Back: Mean (SE)” value ([5]; Week 12, 25 mg daily, 1-tailed p = 0.020) was −0.042 (0.020); p = 0.020 and the “CogState 1-Back: Mean (SEM)” value ([5]; Week 4, 1 mg daily, 1-tailed p = 0.691) was 0.007 (0.014); p = 0.691. The “CogState 1-Back: Mean (SEM)” value ([5]; Week 8, 5 mg daily, 1-tailed p = 0.647) was 0.005 (0.015); p = 0.647, the “CogState 1-Back: Mean (SEM)” value ([5]; Week 12, 25 mg daily, 1-tailed p = 0.042) was −0.024 (0.014); p = 0.042 and the “CogState Social-Emotional Cognition: Mean (SE)” value ([6]; Week 4, 1 mg daily, 1-tailed p = 0.632) was −0.010 (0.028); p = 0.632. For the same compound, the “CogState Social-Emotional Cognition: Mean (SE)” value ([6]; Week 8, 5 mg daily, 1-tailed p = 0.625) was −0.009 (0.029); p = 0.625, the “CogState Social-Emotional Cognition: Mean (SE)” value ([6]; Week 12, 25 mg daily, 1-tailed p = 0.752) was −0.019 (0.027); p = 0.752 and the “CogState Social-Emotional Cognition: Mean (SEM)” value ([6]; Week 4, 1 mg daily, 1-tailed p = 0.259) was 0.013 (0.020); p = 0.259. For the same compound, the “CogState Social-Emotional Cognition: Mean (SEM)” value ([6]; Week 8, 5 mg daily, 1-tailed p = 0.217) was 0.015 (0.020); p = 0.217, the “CogState Social-Emotional Cognition: Mean (SEM)” value ([6]; Week 12, 25 mg daily, 1-tailed p = 0.546) was −0.002 (0.020); p = 0.546 and the “CogState International Shopping List (verbal learning), result in words” value [7] was “statistically significant results of improvement”. For the same compound, the “efficacy by tobacco use” value [8] was “showed efficacy primarily in tobacco users”, the “efficacy in Cognitive Deficits in Schizophrenia (GMLT, SANS, CGI-Global, SGI-Cog, CogState objective cognitive endpoints)” value ([8]; add-on to quetiapine or risperidone, 12 weeks, 1/5/25 mg daily) was “positive efficacy” and the “discontinuations due to adverse events, difference to placebo dose group” value ([9]; Phase 2 trial) was “no clinically significant difference”. For the same compound, the tolerability ([9]; Phase 2 trial, 12 weeks, 1/5/25 mg daily, listed as (2S,3R)—N-(2-((3-pyridinyl)methyl)-1-azabicyclo[2.2.2]oct-3-yl)benzofuran-2-carb) was “well tolerated; also recorded: favorable tolerability profile”, the “serious adverse events in the dose group” value ([9]; one also in placebo dose group, considered by the investigator as not drug related) was “one” and the “nausea (most frequent adverse event more common than in placebo cohort)” value ([9]; placebo 0%, mild to moderate in severity, never led to patient dropout) was 5%. The “efficacy in preclinical models of memory” value [10] was “had efficacy” and the “efficacy in preclinical models of schizophrenia” value [11] was “effective”.
